Results taken from PMC11356873, “Trolox, Ferulic, Sinapic, and Cinnamic Acid Derivatives of Proline and GABA with Antioxidant and/or Anti-Inflammatory Properties” (Molecules, 2024).

Legend:
[1] = target: T1, acetylcholinesterase (Rattus norvegicus, UniProt P37136); assay: Acetylcholinesterase inhibition (acetylthiocholine hydrolysis, rat brain homogenate); type: biochemical; conditions: acetylthiocholine 0.5 mM, after 7 min of incubation
T1 construct: mixed with brain homogenate (20 mg of tissue per mL) from untreated rats; from tissue; host or cells: rat brain homogenate
T1 sequence (P37136 32-614): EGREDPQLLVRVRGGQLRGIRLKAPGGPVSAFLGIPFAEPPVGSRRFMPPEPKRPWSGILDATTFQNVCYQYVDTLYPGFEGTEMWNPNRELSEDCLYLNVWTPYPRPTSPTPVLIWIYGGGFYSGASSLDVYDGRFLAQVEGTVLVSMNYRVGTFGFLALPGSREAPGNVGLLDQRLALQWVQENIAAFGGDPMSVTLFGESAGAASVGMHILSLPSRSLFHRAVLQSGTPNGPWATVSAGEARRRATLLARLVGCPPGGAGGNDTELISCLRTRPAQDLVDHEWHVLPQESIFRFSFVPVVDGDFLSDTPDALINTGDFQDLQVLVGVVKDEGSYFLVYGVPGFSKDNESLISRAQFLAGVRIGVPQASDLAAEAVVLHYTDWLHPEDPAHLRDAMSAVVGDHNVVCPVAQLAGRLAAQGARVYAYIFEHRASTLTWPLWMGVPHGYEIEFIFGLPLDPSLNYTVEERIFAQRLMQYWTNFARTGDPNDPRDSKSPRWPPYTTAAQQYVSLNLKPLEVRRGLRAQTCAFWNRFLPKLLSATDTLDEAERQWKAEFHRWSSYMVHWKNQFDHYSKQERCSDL
Protocol: The tested compounds, dissolved in 60% ethanol, were mixed with brain homogenate (20 mg of tissue per mL) from untreated rats (in 0.1 M phosphate buffer with a pH of 8) and acetylthiocholine (0.5 mM).

[2] = Interaction with the stable free radical DPPH; conditions: for Interaction with DPPH (in words): 25-200 μΜ; for % Interaction with DPPH / Time to completion of the reaction with DPPH: DPPH 200 μΜ; for % Interaction with DPPH: after 30 min of incubation
Protocol: The tested compounds, dissolved in absolute ethanol at final concentrations of 25 up to 200 μΜ, were mixed with DPPH and dissolved in the same solvent at a final concentration of 200 μΜ. The absorbance at 517 nm was recorded every 5 min for 30 min [41].

[3] = tested on: lipid peroxidation of rat hepatic microsomal membranes; assay: Inhibition of lipid peroxidation of rat hepatic microsomal membranes (TBA-reactive material); conditions: for IC50, lipid peroxidation / IC50: rat hepatic microsomal membranes, after 45 min of incubation; for IC50: read-out: IC50, lipid peroxidation
[4] = target: Bovine serum albumin (Bos taurus, UniProt P02769); assay: Inhibition of fructose/copper-induced oxidative protein glycation; type: biochemical; conditions: concentration of 1mM, after 72 h of incubation
Protocol: The purification of the glycation product was based on protein precipitation and washing with trichloroacetic acid (TCA). The concentration of the glycation-modified protein was estimated by fluorescence measurements (excitation of 340 nm, emission of 410 nm). Incubations performed under the same conditions, yet in the absence of fructose, were used as a control. All the fluorescence measurements were expressed relatively to the standard quinine sulphate solution (1 μg/mL).

[5] = target: T2, soybean lipoxygenase (Glycine max, UniProt P08170); assay: Soybean lipoxygenase inhibition; type: biochemical
T2 construct: purchased Sigma (St. Louis, MO, USA)
T2 sequence (P08170 1-839): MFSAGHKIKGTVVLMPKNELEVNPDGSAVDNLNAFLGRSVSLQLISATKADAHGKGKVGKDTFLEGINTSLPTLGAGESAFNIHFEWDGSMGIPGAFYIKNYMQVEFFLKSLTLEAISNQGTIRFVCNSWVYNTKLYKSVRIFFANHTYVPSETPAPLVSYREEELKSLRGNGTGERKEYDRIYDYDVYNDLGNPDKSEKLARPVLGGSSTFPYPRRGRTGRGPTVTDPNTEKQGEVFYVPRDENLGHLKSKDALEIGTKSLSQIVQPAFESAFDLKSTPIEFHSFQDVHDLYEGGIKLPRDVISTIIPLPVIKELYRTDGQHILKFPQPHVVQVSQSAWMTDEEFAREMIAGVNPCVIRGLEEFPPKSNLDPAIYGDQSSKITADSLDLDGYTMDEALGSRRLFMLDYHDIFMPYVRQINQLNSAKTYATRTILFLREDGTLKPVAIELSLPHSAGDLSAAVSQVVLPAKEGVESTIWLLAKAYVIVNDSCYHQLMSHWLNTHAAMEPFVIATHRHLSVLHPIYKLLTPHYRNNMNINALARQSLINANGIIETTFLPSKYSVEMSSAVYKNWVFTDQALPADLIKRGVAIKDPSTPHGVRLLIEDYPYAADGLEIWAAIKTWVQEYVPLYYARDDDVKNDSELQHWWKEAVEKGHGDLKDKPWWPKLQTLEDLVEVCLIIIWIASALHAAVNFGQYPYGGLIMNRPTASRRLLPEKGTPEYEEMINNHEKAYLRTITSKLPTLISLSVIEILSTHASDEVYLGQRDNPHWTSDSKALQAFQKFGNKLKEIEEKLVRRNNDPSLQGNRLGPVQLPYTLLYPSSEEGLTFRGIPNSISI
Protocol: The reaction mixture (total volume of 3 mL) contained 100 μL of the test compounds (100 μM) or the solvent (absolute ethanol, control), 200 μL of soybean LOX (250 u/mL, in a 0.9% NaCl solution), and 2.6 mL of Tris–HCl buffer with a pH of 9.0. The reaction was initiated by the addition of 100 μL sodium linoleate (100 μM) in the sample mixture (with an equal volume of buffer added to the reference solution). The reaction was followed for 7 min at 28 °C, and the absorbance (234 nm) of a conjugated diene structure was recorded.

Bovine serum albumin, sequence (P02769 25-607): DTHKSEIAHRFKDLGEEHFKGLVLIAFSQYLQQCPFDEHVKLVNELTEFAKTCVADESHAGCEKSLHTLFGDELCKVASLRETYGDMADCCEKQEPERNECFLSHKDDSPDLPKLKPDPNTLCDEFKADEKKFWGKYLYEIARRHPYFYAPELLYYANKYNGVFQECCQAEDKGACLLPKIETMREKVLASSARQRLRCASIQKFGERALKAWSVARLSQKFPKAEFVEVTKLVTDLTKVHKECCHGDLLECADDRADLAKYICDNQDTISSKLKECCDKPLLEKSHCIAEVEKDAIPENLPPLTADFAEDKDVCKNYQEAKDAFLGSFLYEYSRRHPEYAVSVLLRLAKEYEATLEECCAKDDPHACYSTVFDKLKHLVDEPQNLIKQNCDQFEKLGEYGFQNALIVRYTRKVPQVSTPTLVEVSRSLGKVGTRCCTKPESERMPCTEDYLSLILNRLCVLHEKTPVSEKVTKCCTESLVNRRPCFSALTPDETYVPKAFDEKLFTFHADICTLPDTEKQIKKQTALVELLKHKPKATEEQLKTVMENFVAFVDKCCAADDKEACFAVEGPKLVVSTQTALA

| SMILES | IC50 [1] [µM] | Interaction with DPPH (in words) [2] | IC50, lipid peroxidation [3] | IC50 [3] [µM] | % Inhibition of protein glycation [4] | inhibition at 100 µM [5] [%] | IC50, acetylcholinesterase [1] | % Interaction with DPPH ([2]; compound 25 μΜ) [%] | % Interaction with DPPH ([2]; compound 50 μΜ) [%] | % Interaction with DPPH ([2]; compound 100 μΜ) [%] | Time to completion of the reaction with DPPH ([2]; compound 200 μΜ) | % Interaction with DPPH ([2]; compound 200 μΜ) [%] | Activity against lipid peroxidation relative to Trolox ([3]; comparison of IC50 values) | inhibition at 1000 µM [4] [%] |
| --- | --- | --- | --- | --- | --- | --- | --- | --- | --- | --- | --- | --- | --- | --- |
| COC(=O)CCCNC(=O)C1CCCN1C(=O)/C=C/c1ccc(OC)c(OC)c1 (stereo not shown) [Compound 3c, (E)-methyl 4-(1-(3-(3,4-dimethoxyphenyl)acryloyl)pyrrolidine-2-carboxamido)butanoate] | 284 | could not interact with DPPH at all | could not inhibit lipid peroxidation | > 1000 | did not exert any inhibition and - | 32 |  |  |  |  |  |  |  |  |
| COC(=O)CCCNC(=O)C1CCCN1C(=O)C1(C)CCc2c(C)c(O)c(C)c(C)c2O1 (stereo not shown) [Compound 5c, Methyl 4-(1-(6-hydroxy-2,5,7,8-tetramethylchroman-2-carbonyl)pyrrolidine-2-carboxamido)-butanoate] |  |  |  | 8 |  | 26 | could not inhibit the enzyme and no inhibitory activity and - | 28 | 54 | 87 | completed in the first five minutes | 89 | about three times more active than Trolox | 37 |
| N=C(N)NN [Aminoguanidine, reference compound] |  |  |  |  | 56% |  |  |  |  |  |  |  |  |  |
| COC(=O)CCCNC(=O)C1CCCN1C(=O)/C=C/c1ccc(O)c(OC)c1 (stereo not shown) [Compound 1c, (E)-methyl 4-(1-(3-(4-hydroxy-3-methoxyphenyl)acryloyl)pyrrolidine-2-carboxamido)butanoate] | 219 |  |  | 839 |  | 36 |  | 10 | 24 | 37 | about 15 min | 58 |  | 41 |
| COC(=O)CCCNC(=O)C1CCCN1C(=O)/C=C/c1cc(OC)c(O)c(OC)c1 (stereo not shown) [Compound 2c, (E)-methyl 4-(1-(3-(4-hydroxy-3,5-dimethoxyphenyl)-acryloyl)pyrrolidine-2-carboxamido)-butanoate] | 298 |  |  | 290 |  | 40 |  | 17 | 36 | 64 | completed in the first five minutes | 85 |  | 48 |
| COC(=O)CCCNC(=O)C1CCCN1C(=O)/C=C/c1ccccc1 (stereo not shown) [Compound 4c, (E)-methyl 4-(1-cinnamoylpyrrolidine-2-carboxamido)butanoate] |  | could not interact with DPPH at all | could not inhibit lipid peroxidation | > 1000 | did not exert any inhibition and - | 40 | - |  |  |  |  |  |  |  |
| Cc1c(C)c2c(c(C)c1O)CCC(C)(C(=O)O)O2 (stereo not shown) [Trolox, 6-hydroxy-2,5,7,8-tetramethylchroman-2-carboxylic acid] |  |  |  | 25 |  |  |  | 19 | 38 | 90 |  | 92 |  |  |
